Reference: patent publication US20050079503A1, “Binding domain of Siah (seven in absentia homolog) protein” (PETER MacCALLUM CANCER INSTITUTE, ST. VINCENT'S INSTITUTE …, priority 2001, published 2005)
Where a chain is given by its changes, count along the chain named. “Also recorded” adds a separate entry of the source. *: point of attachment. Biotin = O=C1N[C@H]2[C@H](CS[C@H]2CCCCC(=O)*)N1

T1: MBP-Siah1a-ZC fusion protein (native Siah substrate-binding domain) (Mus musculus, UniProt P61092)
T1 construct: made in house; host or cells: E. coli BL21DE3
T1 sequence (P61092 80-282): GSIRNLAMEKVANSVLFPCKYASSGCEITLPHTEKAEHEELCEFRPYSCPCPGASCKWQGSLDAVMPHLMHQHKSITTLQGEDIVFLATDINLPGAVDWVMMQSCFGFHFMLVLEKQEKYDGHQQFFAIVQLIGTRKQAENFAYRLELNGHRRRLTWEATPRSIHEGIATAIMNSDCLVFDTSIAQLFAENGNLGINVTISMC

T2: mutant MBP-Siah1a-ZC containing a Leu211 to Arg mutation (Mus musculus, UniProt P61092, L211R)
T2 construct: made in house; the making of the mutant is not described
T2 sequence (P61092 80-282 L211R): T1 sequence (P61092 80-282) with L132R

T3: Siah (Mus musculus, UniProt P61092)
T3 construct: made in house; host or cells: bacteria
T3 sequence (P61092 1-282): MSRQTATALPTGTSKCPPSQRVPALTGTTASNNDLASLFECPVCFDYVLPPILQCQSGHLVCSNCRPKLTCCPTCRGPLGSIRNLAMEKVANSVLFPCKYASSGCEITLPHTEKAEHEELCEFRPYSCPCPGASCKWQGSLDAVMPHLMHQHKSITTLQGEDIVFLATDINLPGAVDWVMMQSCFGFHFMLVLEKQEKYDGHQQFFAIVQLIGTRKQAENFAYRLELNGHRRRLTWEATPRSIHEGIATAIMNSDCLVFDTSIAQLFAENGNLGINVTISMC

T4: mutant form of Siah (Leu211 to Arg) (Mus musculus, UniProt P61092, L211R)
T4 construct: made in house
T4 sequence (P61092 80-282 L211R): T1 sequence (P61092 80-282) with L132R

B1: PHYL: phyllopod (PHYL) protein from Drosophila (protein, UniProt Q27934 1-400, looked up)
Protein phyllopod: MSTNQQQQANPSAAVAAPAASSEYLKRTCLICGCHTNQTINIYEPRSGPNIVQLIQAKFKFQPLNEDKFLCFSCNNWLINWHSLQAVNSNEAESQSQSPSHMGNSVLQQERTKLRPVAMVRPTVRVQPQSQPQLQPQVPINPTPAPIVYSKRRASRRSASVSRMSRVLRQCCVESLRRSPKKRNQQSVFVCLRPQGQKRSNAICKVECVAPRRKPVERLVKDVAATATPTPVLNTQSTPTYQRFPQPSVDGKVVAMFRRLGTTLSREEPAAYSAESNPACSKLPQIMSPLKEAPRWTRDLDDDEILLEFDTAISEVLPTARYQVTHEENKENQQAQEMELELEEEEEVDGRAELEVVQEAEAPLEPQSHHKQGNSHQNSHQASIQLAGLRLPMGLSISLV

Legend:
[1] = biological target: T1, MBP-Siah1a-ZC fusion protein (native Siah substrate-binding domain); assay: ELISA-based binding of biotinylated plectin peptide to Siah substrate-binding domain; details: peptide captured on Neutravidin plate at 4 μg/ml; ABTS read at A405
Experimental: (§1) Siah SBD binding to the plectin peptide (Biotin-[…]-NH2 corresponding to residues 95-117 of human plectin) was assessed by capturing biotinylated peptide on a 96-well plate coated with 0.5 μg Neutravidin per well. Peptide was captured for 30 min at room temperature at a concentration of 4 μg/ml. MBP-Siah1a-ZC fusion protein was bound to the peptide for 50 min at room temperature (or the controls of buffer alone (PBS/tween 20) or mutant MBP-Siah1a-ZC containing a Leu211 to Arg mutation). Bound protein was quantitated by rabbit anti-MBP antibody (1:300 dilution), then HRP conjugated goat-anti-rabbit antibody. Detection utilised ABTS substrate read at A405.
(§2) Following the identification of a Siah binding motif present in PHYL (RPVAXVXPXXR), a protein database search detected a number of proteins with conserved motifs, including plectin. The Applicants utilised a synthetic peptide corresponding to the sequence […] in plectin to test binding to Siah in an ELISA-based assay, where the underlined sequence corresponds to the amino acids conserved with the PHYL motif. […] Furthermore, as other Siah binding proteins are identified in this way it is predicted that the sequence of the optimal binding motif will be further refined.

[2] = biological target: T2, mutant MBP-Siah1a-ZC containing a Leu211 to Arg mutation; assay: ELISA-based binding of biotinylated plectin peptide to mutant Siah substrate-binding domain; details: peptide captured on Neutravidin plate at 4 μg/ml; ABTS read at A405
Experimental: as §1, §2

[3] = biological target: T3, Siah; assay: Interaction studies using bacterially expressed proteins; format: binding
Excerpt: PHYL is known to interact and function with SINA, the Drosophila orthologue of mammalian Siah, in the targeted degradation of the transcriptional repressor tramtrack 88 (TTK88). Applicants have shown that it interacts similarly with mammalian Siah.

[4] = biological target: T4, mutant form of Siah (Leu211 to Arg); assay: Binding of PHYL to mutant form of Siah; details: method not stated

Molecule	binding to native Siah substrate-binding domain [1]	binding to mutant form of Siah substrate-binding domain (Leu211 to Arg) [2]	affinity of interaction with Siah (in words) [3]	binding to mutant form of Siah [4]
Biotin-ASLQRVRRPVAMVMPARRTPHVQ-NH2 [plectin peptide]	bound; also recorded: binds	not	–	–
B1	–	–	high affinity	does not bind
